# Results from paper PMC9676650, “Binding pocket stabilization by high-throughput screening of yeast display libraries” (Frontiers in Molecular Biosciences, 2022).
# Substitutions are numbered along the chain they refer to.
# Legend:
# FKBP51 variant G64S = target: T1, FKBP51 variant G64S (Homo sapiens, UniProt Q13451, G64S); experiment: Competitive fluorescence polarization assay, FKBP51 G64S; conditions: 10-40 nM FKBP51 G64S; 1 nM FK [431]-TA tracer; 30 min room temperature; fitted as KI in competitive binding model; read-out: Kd-value (ligand binding constant, competitive fluorescence polarization)
# T1 construct: made in house; host or cells: E. coli BL21 (DE3)
# T1 sequence (Q13451 1-140 G64S): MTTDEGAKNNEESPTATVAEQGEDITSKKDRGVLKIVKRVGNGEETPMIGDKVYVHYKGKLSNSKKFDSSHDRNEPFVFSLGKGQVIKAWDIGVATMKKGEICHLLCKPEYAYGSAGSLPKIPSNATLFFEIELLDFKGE
# Source text: (§1) All ligands and tracers used for fluorescence polarization assays had purities of more than 95%. The following ligands and tracers were used for fluorescence polarization and FACS screening experiments: •SAFit-FL tracer (1): Fluorescein conjugated analog of the iFit ligand class. •Mcyc-TA tracer (2): TAMRA conjugated macrocyclic ligand (5). •FK [431]-TA tracer (3): TAMRA conjugated FK [431] ligand (6). •SAFit1 ligand (4): analog of the iFit ligand class. •macrocyclic ligand (5):macrocyclic analog of the SAFit class ligands. •FK [431] ligand (6):bicyclic analog of the immunosuppressive drug FK506
# (§2) In order to rule out artifacts introduced by the fluorophore of the tracers, competitive fluorescence polarization assays were carried out. Therefore, a serial dilution of an FK [431] ligand (6), SAFit1 (4), or a macrocyclic ligand 5) (Supplementary Figure S8) in assay buffer was placed in a 384-well assay plate. To the compounds, a mixture of the respective protein (20 nM WT, 10–40 nM G64S or 80–100 nM D68Y) and 1 nM of the FK [431]-TA in assay buffer was added. After incubating for 30 min at room temperature, the fluorescence polarization was measured. […]
# FKBP51 variant D68Y = target: T2, FKBP51 variant D68Y (Homo sapiens, UniProt Q13451, D68Y); experiment: Competitive fluorescence polarization assay, FKBP51 D68Y; conditions: 80-100 nM FKBP51 D68Y; 1 nM FK [431]-TA tracer; 30 min room temperature; fitted as KI in competitive binding model; read-out: Kd-value (ligand binding constant, competitive fluorescence polarization)
# T2 construct: made in house; host or cells: E. coli BL21 (DE3)
# T2 sequence (Q13451 1-140 D68Y): T1 sequence (Q13451 1-140 G64S) with S64G, D68Y
# Source text: as §1, §2
# FKBP51 WT = target: T3, FKBP51 WT (Homo sapiens, UniProt Q13451); experiment: Competitive fluorescence polarization assay, FKBP51 WT; conditions: 20 nM FKBP51 WT; 1 nM FK [431]-TA tracer; 30 min room temperature; fitted as KI in competitive binding model; read-out: Kd-value (ligand binding constant, competitive fluorescence polarization)
# T3 construct: made in house; host or cells: E. coli BL21 (DE3)
# T3 sequence (Q13451 1-140): T1 sequence (Q13451 1-140 G64S) with S64G
# Source text: as §1, §2
structure (smiles),measurement,setting,value
COc1ccc(CC[C@@H](OC(=O)[C@@H]2CCCCN2C(=O)[C@H](c2cc(OC)c(OC)c(OC)c2)C2CCCCC2)c2cccc(OCC(=O)O)c2)cc1OC [SAFit1],Kd,FKBP51 variant G64S,0.5 ± 0.2 nM
same,Kd,FKBP51 variant D68Y,0.2 ± 0.5 nM
same,Kd,FKBP51 WT,4.8 ± 0.4 nM
